Data published in patent publication US7282489B2, “Compositions and methods for performing reverse gene therapy” (The Children's Hospital of Philadelphia, priority 2000, dated 2007).

Experiments:
[1] = biological target: T1, channels formed with wild-type hMiRP1 (Homo sapiens, UniProt Q12809); test: Whole cell voltage clamp, HEK293 cells stably expressing HERG and wild type hMiRP1; format: cell-based; details: wild-type hMiRP1, activation at +20 mV, read-out: Dose causing half block of the peak outward currents
T1 construct: expressed in transfected cells; host or cells: HEK293 stably expressing HERG, stably co-transfected with pIRES2-EGFP-hMiRP1-FLAG
Method: (§1) Electrophysiology Methods: HEK293 cells that stably express HERG, but not hMiRP1 (Zhou, et al., 1999) were also stably co-transfected with either hMiRP1 or Q9E-hMiRP1 and subsequently were analyzed for channel function by single cell patch clamping using voltage clamp conditions. The data were analyzed at a sampling rate of 4 kHz and filtered at 1 kHz using Pclamp software version 6.0 (Axon Instruments, Foster City, Calif.). Leak correction was not performed, and therefore unaltered data are shown. All experiments were performed at 25° C. Protocols for steady-state activation and isochronal peak currents, and clarithromycin incubations were performed as described by Abbott et al., 1999. Initial studies were performed in buffer containing 95 mM KCl, 5 mM NaCl, 1 mM MgCl2, 0.3 mM CaCl2, and 10 mM HEPES (pH 7.6). For whole cell recordings, pipettes contained 100 mM KCl, 1 mM MgCl2, 10 mM HEPES, and 2 mM EGTA (pH 7.5). A 50 mM Clarithromycin (American Bioanalytical, Natick, Mass.) stock in DMSO was diluted in bath solution.

Q9E-hMiRP1 channels [2] = biological target: T2, Q9E-hMiRP1 channels (Homo sapiens, UniProt Q12809); test: Whole cell voltage clamp, HEK293 cells stably expressing HERG and Q9E-hMiRP1; format: cell-based; details: HEK293 cells overexpressing Q9E-hMiRP1, activation at +20 mV; read-out: Dose leading to half blockade of peak outward currents
T2 construct: expressed in transfected cells; host or cells: HEK293 stably expressing HERG, stably co-transfected with pIRES2-EGFP-Q9E-hMiRP1-FLAG
Method: as §1

Q9E-hMiRP1 channels [3] = biological target: T3, Q9E-hMiRP1 channels (Homo sapiens, UniProt Q12809+Q9Y6J6, Q9E); test: as above; format: cell-based
T3 construct: expressed in transfected cells; host or cells: HEK293 stably expressing HERG, stably co-transfected with pIRES2-EGFP-Q9E-hMiRP1-FLAG
Method: as §1

Q9E-hMiRP1 channels [4] = biological target: T3, Q9E-hMiRP1 channels; details: patch clamp studies, Abbott et al, 1999; cited from earlier work
[5] = test system: re-entrant atrial flutter; test: Y-atriotomy model for re-entrant atrial flutter, burst atrial pacing; format: in vivo, dog; details: dogs systemically administered a dose of ibutilide equivalent to that provided by the polymer

T3 sequence (Q12809 whole entry): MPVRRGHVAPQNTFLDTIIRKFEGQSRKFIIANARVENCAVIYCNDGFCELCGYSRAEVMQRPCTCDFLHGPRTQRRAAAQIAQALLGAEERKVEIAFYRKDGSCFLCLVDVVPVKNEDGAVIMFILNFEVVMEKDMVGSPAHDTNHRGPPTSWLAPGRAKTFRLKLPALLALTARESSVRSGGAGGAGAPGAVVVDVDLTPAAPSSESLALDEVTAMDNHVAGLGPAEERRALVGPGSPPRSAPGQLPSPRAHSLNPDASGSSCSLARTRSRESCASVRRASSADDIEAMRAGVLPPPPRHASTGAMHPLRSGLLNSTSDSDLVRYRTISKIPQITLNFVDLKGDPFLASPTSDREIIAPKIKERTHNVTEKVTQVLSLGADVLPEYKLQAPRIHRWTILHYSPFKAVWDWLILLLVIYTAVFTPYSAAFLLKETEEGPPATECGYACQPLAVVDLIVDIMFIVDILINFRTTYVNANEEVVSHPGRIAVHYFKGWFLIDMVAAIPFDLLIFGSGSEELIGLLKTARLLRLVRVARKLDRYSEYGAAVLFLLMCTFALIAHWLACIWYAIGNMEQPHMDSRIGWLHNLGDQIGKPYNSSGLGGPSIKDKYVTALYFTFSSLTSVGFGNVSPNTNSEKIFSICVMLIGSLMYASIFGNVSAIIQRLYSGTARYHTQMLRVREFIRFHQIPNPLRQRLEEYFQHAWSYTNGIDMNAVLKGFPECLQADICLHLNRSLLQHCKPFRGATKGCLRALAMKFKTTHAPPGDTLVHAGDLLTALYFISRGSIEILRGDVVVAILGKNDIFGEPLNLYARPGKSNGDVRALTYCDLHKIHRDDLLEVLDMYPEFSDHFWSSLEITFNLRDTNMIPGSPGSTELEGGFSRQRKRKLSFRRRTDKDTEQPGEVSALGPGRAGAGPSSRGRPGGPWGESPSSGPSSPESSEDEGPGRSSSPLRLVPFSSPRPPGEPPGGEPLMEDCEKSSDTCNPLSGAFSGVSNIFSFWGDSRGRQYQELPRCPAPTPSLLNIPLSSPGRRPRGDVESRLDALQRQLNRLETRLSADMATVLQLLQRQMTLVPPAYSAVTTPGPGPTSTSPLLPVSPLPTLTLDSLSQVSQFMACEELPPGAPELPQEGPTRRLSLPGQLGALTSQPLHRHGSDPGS
T3 sequence (Q9Y6J6 whole entry Q9E): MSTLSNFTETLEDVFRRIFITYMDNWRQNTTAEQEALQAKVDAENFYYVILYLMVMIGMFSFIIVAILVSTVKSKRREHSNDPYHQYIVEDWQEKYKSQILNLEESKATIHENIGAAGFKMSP
T1 sequence (Q12809 whole entry): as the sequence (Q12809 whole entry) above
T1 sequence (Q9Y6J6 whole entry, further chain): as the sequence (Q9Y6J6 whole entry Q9E) above, with E9Q counted along it
T2 sequence (Q12809 whole entry): as the sequence (Q12809 whole entry) above
T2 sequence (Q9Y6J6 whole entry Q9E, further chain): as the sequence (Q9Y6J6 whole entry Q9E) above

SMILES: CC[C@H]1OC(=O)[C@H](C)[C@@H](O[C@H]2C[C@@](C)(OC)[C@@H](O)[C@H](C)O2)[C@H](C)[C@@H](O[C@@H]2O[C@H](C)C[C@H](N(C)C)[C@H]2O)[C@](C)(OC)C[C@@H](C)C(=O)[C@H](C)[C@@H](O)[C@]1(C)O [clarithromycin, Clarithromycin]
- IC50 [1]: ~2000 µM
- IC50 (Q9E-hMiRP1 channels [2]): < 1000 µM
- Effect on I/I max with increased voltages (Q9E-hMiRP1 channels [3]; 1.0 mM clarithromycin, Q9E-hMiRP1 stable cells, groups of 4 cells): blocked increases in I/I max with increased voltages
- Clarithromycin effect in Q9E-hMiRP1 cells relative to wild type hMiRP1 cells (Q9E-hMiRP1 channels [3]; HEK293 cells): many-fold greater
- Effect on peak outward currents (Q9E-hMiRP1 channels [3]; HEK293 cells over-expressing Q9E-hMiRP1, whole cell voltage clamp): reduced peak outward currents
- Sensitivity of Q9E-hMiRP1 channels to clarithromycin induced diminution of potassium currents relative to wild type (Q9E-hMiRP1 channels [4]): 3 fold

SMILES: CCCCCCCN(CC)CCCC(O)c1ccc(NS(C)(=O)=O)cc1 (stereo not shown) [ibutilide, Ibutilide]
- Inhibition of inducibility of atrial flutter [5]: No significant inhibition
